Laboratory results published in ChEMBL document CHEMBL1201862, “PubChem BioAssay data set” (2004).
Active and inactive are the calls of the source.

Legend:
[1] = molecular target: Glyceraldehyde-3-phosphate dehydrogenase (Homo sapiens, UniProt P04406)
Bcl-2-related protein A1 [2] = molecular target: T1, Bcl-2-related protein A1 (Mus musculus, UniProt Q07440); test: small-molecule antagonists of Bfl-1/BH3 interaction – biochemical, TR-FRET, mouse Bfl-1, confirmation (AID 621);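 also: TR-FRET binding of GST-Bfl-1 to FITC-labelled Bid peptide via terbium antibody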
T1 sequence (Q07440 whole entry): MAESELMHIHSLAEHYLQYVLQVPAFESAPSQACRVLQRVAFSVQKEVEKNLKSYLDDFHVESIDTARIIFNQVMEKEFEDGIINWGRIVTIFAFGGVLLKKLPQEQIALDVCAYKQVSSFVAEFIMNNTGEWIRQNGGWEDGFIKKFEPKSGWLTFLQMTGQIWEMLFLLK

Bcl-2-related protein A1 [3] = molecular target: T1, Bcl-2-related protein A1; test: Bfl-1 binding inhibitors, SAR follow-up, biochemical, fluorescence polarization (AID 1070)
[4] = molecular target: Sphingosine 1-phosphate receptor 2 (Homo sapiens, UniProt O95136); test: Dose Response Cell Based Assay for Agonists of the S1P2 Receptor. [Related pubchem assays: 729, 736, 843 ]; format: functional
Sequence of Sphingosine 1-phosphate receptor 2 (O95136 whole entry): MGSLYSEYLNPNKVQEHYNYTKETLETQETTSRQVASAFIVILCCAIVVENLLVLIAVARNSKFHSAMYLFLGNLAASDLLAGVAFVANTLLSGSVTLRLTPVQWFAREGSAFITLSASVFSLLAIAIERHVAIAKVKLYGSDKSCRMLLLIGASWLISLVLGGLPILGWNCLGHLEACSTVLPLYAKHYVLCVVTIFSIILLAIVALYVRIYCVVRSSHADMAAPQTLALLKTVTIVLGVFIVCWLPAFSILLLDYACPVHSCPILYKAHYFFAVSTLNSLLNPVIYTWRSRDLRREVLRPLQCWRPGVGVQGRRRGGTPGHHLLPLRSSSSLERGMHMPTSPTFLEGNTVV

[5] = molecular target: E3 ubiquitin-protein ligase Mdm2 (Homo sapiens, UniProt Q00987); test: MDM2-luc reporter signal enhancers, multi-concentration potency testing, MDM2 ubiquitin-protein ligase inhibitor program, whole-cell format, luminescence detection, 384-well microplate (AID 1394); format: functional;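 also: MDM2 E3 inhibitors raise luminescence so EC50 is for signal enhancement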
Sequence of E3 ubiquitin-protein ligase Mdm2 (Q00987 whole entry): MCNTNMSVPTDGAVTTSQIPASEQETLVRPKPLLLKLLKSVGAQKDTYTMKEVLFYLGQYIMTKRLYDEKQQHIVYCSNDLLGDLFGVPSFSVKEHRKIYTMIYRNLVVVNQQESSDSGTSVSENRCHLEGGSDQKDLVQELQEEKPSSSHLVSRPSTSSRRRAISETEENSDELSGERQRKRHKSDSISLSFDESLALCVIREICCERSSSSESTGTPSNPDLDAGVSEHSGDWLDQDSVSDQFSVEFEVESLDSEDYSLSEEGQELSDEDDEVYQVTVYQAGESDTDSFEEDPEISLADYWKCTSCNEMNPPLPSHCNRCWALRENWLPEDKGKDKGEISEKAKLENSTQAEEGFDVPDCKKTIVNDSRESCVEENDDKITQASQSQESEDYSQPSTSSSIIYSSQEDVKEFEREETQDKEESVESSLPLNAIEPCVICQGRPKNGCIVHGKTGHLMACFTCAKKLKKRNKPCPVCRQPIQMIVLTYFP

[6] = viability loss in Vero cells – cytotoxicity control for Vif-APOBEC3G degradation inhibitor project, dose response (AID 1117358); format: functional; conditions: Vero
[7] = system: Streptococcus sp. 'group A'; test: Streptococcus pyogenes SK(-)GAS viability under kanamycin – luminescence, BacTiterGlo, confirmation, counter-screen for streptokinase expression inhibitor project, dose response (AID 1900); format: functional, organism-based
Streptokinase A = molecular target: T2, Streptokinase A (Streptococcus pyogenes serotype M1, UniProt P10520); test: viability-normalized secreted streptokinase activity reduction – plasminogen activation absorbance, OD405, dose response (AID 1914); format: functional, Streptococcus pyogenes M1 GAS;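 also: secreted streptokinase activity via plasminogen activation per viability signal from cell pellet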
T2 sequence (P10520 whole entry): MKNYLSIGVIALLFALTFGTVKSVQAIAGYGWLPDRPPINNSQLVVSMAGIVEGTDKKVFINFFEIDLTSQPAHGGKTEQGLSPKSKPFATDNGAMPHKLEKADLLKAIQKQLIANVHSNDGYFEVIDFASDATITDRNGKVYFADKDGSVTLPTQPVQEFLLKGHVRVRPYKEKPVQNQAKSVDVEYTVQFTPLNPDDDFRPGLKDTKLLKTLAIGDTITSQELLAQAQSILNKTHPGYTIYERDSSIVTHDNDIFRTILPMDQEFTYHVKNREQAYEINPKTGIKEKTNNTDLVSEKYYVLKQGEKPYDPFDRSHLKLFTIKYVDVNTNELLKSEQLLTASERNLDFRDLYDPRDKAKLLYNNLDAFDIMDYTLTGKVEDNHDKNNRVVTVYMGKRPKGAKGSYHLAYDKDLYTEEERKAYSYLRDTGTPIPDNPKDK

Streptococcus = test: GAS UMAA2166 growth inhibition – luminescence, BacTiterGlo, counter-screen for streptokinase expression inhibitor project, dose response (AID 1915); format: functional, organism-based;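 also: potency for reduction of bacterial viability or growth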
[8] = molecular target: T3, Carboxy-terminal domain RNA polymerase II polypeptide A small phosphatase 1 (Homo sapiens, UniProt Q9GZU7); test: CTDSP1 inhibitors, concentration-response, biochemical, absorbance readout, ultra-high-throughput screen actives (AID 540297); format: functional
T3 sequence (Q9GZU7 whole entry): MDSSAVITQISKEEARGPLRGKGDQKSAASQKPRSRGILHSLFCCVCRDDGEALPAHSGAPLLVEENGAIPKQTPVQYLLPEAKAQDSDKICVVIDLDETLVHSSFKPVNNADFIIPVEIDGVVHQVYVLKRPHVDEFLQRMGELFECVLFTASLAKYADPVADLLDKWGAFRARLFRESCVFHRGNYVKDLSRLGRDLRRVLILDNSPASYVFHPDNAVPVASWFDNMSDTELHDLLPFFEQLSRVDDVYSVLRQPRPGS

[9] = molecular target: Protein-tyrosine kinase 2-beta (Homo sapiens, UniProt Q14289);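 also: potency of inhibitors of PYK2 kinase phosphorylation of poly-GT substrate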
Sequence of Protein-tyrosine kinase 2-beta (Q14289 whole entry): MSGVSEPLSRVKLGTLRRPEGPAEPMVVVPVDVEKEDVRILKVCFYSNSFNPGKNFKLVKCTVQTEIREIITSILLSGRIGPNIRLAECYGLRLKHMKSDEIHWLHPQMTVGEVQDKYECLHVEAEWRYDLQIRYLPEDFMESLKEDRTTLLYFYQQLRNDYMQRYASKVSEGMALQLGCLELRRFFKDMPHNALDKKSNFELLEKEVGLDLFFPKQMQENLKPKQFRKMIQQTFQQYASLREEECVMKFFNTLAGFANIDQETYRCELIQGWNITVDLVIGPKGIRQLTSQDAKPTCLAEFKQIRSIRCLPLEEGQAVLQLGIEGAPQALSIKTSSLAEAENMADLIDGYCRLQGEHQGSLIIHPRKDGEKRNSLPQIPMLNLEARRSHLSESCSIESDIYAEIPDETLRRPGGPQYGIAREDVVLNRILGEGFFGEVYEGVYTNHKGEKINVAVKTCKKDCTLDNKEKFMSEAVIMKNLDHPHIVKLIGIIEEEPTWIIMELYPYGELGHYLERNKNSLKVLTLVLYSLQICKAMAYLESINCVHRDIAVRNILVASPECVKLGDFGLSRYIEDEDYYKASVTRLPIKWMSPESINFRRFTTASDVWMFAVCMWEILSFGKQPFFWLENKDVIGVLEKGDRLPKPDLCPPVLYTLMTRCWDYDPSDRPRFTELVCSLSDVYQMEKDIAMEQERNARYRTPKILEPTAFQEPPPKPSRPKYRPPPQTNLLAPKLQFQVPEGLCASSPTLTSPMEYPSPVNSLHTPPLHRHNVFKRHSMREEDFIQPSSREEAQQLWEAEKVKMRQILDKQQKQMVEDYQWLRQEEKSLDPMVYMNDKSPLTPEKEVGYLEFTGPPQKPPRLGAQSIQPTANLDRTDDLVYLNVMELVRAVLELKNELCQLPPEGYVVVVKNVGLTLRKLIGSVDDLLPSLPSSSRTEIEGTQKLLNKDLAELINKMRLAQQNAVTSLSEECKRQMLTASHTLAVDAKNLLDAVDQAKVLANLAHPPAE

Cytochrome P450 2C19 = Cytochrome P450 2C19 (Homo sapiens, UniProt P33261); test: Cytochrome panel assay with activity outcomes. Panel member name: p450-cyp2c19 Compounds with AC50 equal or less than 10 uM are considered active; format: functional; conditions: read-out: AC50
Sequence of Cytochrome P450 2C19 (P33261 whole entry): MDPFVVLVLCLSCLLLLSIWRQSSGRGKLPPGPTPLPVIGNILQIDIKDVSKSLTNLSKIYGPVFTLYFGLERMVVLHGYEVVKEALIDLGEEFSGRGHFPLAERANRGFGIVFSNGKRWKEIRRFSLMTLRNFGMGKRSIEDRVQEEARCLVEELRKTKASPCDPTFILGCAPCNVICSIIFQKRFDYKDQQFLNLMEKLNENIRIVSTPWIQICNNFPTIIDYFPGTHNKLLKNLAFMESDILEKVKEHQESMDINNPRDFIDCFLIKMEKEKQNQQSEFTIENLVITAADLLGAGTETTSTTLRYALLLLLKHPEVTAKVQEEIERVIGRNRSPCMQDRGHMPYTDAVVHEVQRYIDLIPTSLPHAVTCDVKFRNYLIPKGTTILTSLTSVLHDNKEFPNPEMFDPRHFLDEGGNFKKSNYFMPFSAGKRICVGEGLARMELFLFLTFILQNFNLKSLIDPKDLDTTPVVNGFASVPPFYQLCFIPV

Cytochrome P450 1A2 = molecular target: T4, Cytochrome P450 1A2 (Homo sapiens, UniProt P05177);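 also: PubChem cytochrome P450 panel assay, CYP1A2 panel member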
T4 sequence (P05177 whole entry): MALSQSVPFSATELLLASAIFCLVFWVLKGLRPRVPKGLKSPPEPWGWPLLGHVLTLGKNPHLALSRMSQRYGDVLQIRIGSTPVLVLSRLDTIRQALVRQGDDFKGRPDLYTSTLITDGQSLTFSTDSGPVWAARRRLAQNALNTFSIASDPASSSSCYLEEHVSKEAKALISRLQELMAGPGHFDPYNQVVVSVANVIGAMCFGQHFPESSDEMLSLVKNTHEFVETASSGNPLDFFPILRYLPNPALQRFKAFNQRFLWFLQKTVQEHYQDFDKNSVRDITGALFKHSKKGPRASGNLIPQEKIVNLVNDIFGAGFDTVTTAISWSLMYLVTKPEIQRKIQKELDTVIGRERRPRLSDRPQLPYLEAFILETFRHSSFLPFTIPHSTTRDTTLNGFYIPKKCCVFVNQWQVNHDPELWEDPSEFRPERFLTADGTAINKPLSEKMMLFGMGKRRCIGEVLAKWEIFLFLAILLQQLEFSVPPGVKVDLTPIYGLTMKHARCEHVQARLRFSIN

Cytochrome P450 2C9 = Cytochrome P450 2C9 (Homo sapiens, UniProt P11712)
Sequence of Cytochrome P450 2C9 (P11712 whole entry): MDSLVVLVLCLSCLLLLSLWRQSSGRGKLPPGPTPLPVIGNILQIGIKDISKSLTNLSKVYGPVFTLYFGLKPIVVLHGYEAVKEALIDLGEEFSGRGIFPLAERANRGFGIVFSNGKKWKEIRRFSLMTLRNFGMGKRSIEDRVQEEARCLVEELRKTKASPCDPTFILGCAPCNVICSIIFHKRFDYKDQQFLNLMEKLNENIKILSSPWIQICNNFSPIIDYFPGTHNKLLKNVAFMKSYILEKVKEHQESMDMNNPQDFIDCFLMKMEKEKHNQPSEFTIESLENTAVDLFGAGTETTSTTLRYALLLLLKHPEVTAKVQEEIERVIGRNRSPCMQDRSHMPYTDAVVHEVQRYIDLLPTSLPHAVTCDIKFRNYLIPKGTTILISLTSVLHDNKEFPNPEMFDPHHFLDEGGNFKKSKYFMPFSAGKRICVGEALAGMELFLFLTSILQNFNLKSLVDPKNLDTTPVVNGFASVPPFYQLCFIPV

Cytochrome P450 3A4 = Cytochrome P450 3A4 (Homo sapiens, UniProt P08684);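 also: CYP3A4 tested as one member of a cytochrome P450 panel screen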
Sequence of Cytochrome P450 3A4 (P08684 whole entry): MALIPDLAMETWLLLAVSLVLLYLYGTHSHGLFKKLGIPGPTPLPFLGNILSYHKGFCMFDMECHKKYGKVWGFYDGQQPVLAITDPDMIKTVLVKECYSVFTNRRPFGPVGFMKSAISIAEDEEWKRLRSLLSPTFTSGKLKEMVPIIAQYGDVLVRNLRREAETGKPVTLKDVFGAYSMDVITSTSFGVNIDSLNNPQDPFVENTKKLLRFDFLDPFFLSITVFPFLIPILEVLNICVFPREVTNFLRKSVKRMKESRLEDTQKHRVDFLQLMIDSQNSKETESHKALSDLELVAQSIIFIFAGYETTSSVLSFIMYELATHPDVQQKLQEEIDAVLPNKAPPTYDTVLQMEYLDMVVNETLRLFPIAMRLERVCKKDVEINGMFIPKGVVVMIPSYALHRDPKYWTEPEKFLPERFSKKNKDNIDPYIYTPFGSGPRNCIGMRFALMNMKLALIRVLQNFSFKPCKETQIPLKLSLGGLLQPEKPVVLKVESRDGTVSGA

[10] = viability loss in HeLa cells – cytotoxicity control for MgcRacGAP inhibitor project, dose response (AID 624300); format: functional
[11] = blockers of HIV-1 envelope-mediated cell-cell fusion – cherry-pick, dose response (AID 652057); format: functional, cell-based
[12] = viability loss in CEM21 cells – cell-based, CellTiter-Glo luminescence, cherry-picked, cytotoxicity control for viral fusion inhibitor project, dose response (AID 652042); format: functional;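 also: potency for signal decrease meaning cytotoxicity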

Sequence of Glyceraldehyde-3-phosphate dehydrogenase (P04406 whole entry): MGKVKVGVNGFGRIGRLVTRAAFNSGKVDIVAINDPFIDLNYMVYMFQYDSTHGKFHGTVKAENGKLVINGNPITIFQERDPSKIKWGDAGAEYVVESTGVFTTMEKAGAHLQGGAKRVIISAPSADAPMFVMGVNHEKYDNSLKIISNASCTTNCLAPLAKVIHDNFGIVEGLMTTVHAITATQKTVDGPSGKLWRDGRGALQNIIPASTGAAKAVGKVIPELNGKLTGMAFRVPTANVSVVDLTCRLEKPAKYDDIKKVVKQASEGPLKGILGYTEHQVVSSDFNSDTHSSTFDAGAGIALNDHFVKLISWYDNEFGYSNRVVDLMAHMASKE

O=C1C(Cl)=C(N2CCN(Cc3ccc4c(c3)OCO4)CC2)C(=O)N1c1ccc([N+](=O)[O-])cc1
IC50 [1]: > 100 µM (not active) | IC50 (Bcl-2-related protein A1 [2]): 4.59 µM (active) | IC50 (Bcl-2-related protein A1 [3]): 4.68 µM (active)

Cc1cc(-c2nnc(SCC(=O)NC3CCCC3)o2)no1
EC50 [4]: > 50 µM (not active)

NC(=O)c1c(NC(=O)C2CCCO2)sc2c1CCCC2 (stereo not drawn)
EC50 [5]: 7.26 µM (not active)

COC(=O)C(C(=O)Nc1ccc(OC)cc1)C1CCCCCC1 (stereo not drawn)
CC50 [6]: > 40 µM (active)

Cc1ccsc1C1Nc2ccc3ncccc3c2C2=C1C(=O)CCC2 (stereo not drawn)
EC50 [5]: 25 µM (not active)

COc1ccc(Cn2c(-c3ccco3)nc3oc4cc(OC)ccc4c(=O)c3c2=O)cc1
EC50 [7]: 25.5 µM (active) | EC50 (Streptokinase A): > 150 µM (not active) | EC50 (Streptococcus): > 150 µM (not active) | EC50 [4]: > 50 µM (not active) | IC50 [8]: 7.58 µM (active)

O=C1C(Cl)=C(N2CCN(c3ccc(F)cc3)CC2)C(=O)N1c1ccc(Cl)c(Cl)c1
IC50 (Bcl-2-related protein A1 [2]): 19.1 µM (active) | IC50 (Bcl-2-related protein A1 [3]): > 100 µM (not active)

C=CCn1c(P(=O)(O)c2ccccc2)nc2ccccc21
IC50 [9]: 26.6 µM (not active) | AC50 (Cytochrome P450 2C19): 6.31 µM (inconclusive) | AC50 (Cytochrome P450 1A2): 15.8 µM (inconclusive) | AC50 (Cytochrome P450 2C9): 25.1 µM (inconclusive) | AC50 (Cytochrome P450 3A4): inconclusive

COc1ccc2[nH]c3c(N4CCC(O)(c5cccc(C(F)(F)F)c5)CC4)ncnc3c2c1
CC50 [10]: 33 µM (active) | AC50 [11]: 9.77 µM (active) | AC50 [12]: 7.3 µM (active) | CC50 [6]: 29.4 µM (active)
